Assay results reported in US10632106B2, “Methods of cancer treatment with 2-(1′H-Indole-3′-carbonyl)-thiazole-4-carboxylic acid methyl ester” (Ariagen, Inc., priority 2009, dated 2020).

Test system: S180 (mouse soft tissue cancer/sarcoma) homografts
Assay: S180 homograft (syngeneic) growth inhibition in ICR mice
Type: in vivo
Settings: ITE 200 mg/kg i.p. once daily
Protocol: All the procedures related to animal handling, care, and the treatment in the study were performed following guidelines of KeyGen Biotechn Co., Ltd. (Nanjing, China), a contract research organization we hired, based on the guidance of the Association for Assessment and Accreditation of Laboratory Animal Care (AAALAC). Animals were checked for any effects of tumor growth and drug treatment on normal behavior such as mobility, food and water consumption, body weight gain/loss (bodyweights were measured every two days), eye/hair matting, and any other abnormal effect. Death and observed clinical signs were recorded. Individual animals with a tumor volume exceeding 3,000 mm^3 or animals of a group with a mean tumor volume exceeding 2,000 mm^3 were euthanized. In addition, animals showing signs of severe distress and/or pain or losing the capability of accessing adequate food or water were humanely sacrificed.
Cell lines HCT116, Siha, MFC were cultured in DMEM medium (high glucose) supplemented with 10% fetal bovine serum (FBS), SW116 and T24 in RPMI-1640 medium with 10% FBS, M14 and A375 in DMEM medium (high glucose) with 10% calf serum (CS), SGC7901 and Ketr-3 in RPMI-1640 medium with 10% CS, and CFPAC-1 in IMDM medium with 10% FBS. All of the cells were cultured, in the presence of 100 U/ml penicillin and 100 μg/ml streptomycin, at 37° C. in an atmosphere of 5% CO2 in air. […] The cells growing in an exponential phase were harvested and counted for tumor inoculation. Cell lines 5180 and U14 were maintained in ascites (peritoneal cavity fluid) of mice and were harvested and counted for tumor inoculation. […]
Tumor volume was measured every two days in two dimensions using a caliper and the volume was calculated with a formula of: V=0.5 a×b^2, where a and b are the long and short diameter (in mm) of a tumor, respectively. […] The TGD was calculated as: TGD=T−C, where T was the time (in days) required for tumors in a drug treated group to reach a predetermined mean tumor volume and C the time (in days) in the control group to reach the same volume. […]

With `COC(=O)c1csc(C(=O)c2c[nH]c3ccccc23)n1` [ITE, 2-(1′H-indole-3′-carbonyl)-thiazole-4-carboxylic acid methyl ester] the TGD (TGD at Vol. 2,000) was 1.5 days, the “TGI (%)” value (TGI at day 8, TGI=(1−ΔT/ΔC)×100%) was 33% and the “Weight Loss” value (end of therapy relative to beginning) was 9%.
